Consider eight compounds from ChEMBL document CHEMBL1130776, “Synthesis and biological activity of 3-substituted 3-desoxynaltrindole derivatives” (Bioorg Med Chem Lett, 1998).

The target of test [1] is Kappa-type opioid receptor (Cavia porcellus, UniProt P41144). The test is described as follows: Compound was tested for its ability to displace [3H]U-69593 from kappa receptor in guinea pig brain.
In test [2] the target is Mu-type opioid receptor (Rattus norvegicus, UniProt P33535). The test is described as follows: Compound was tested for its ability to displace [3H]DAMGO from mu receptor in rat brain. The format is tissue-based.
The target in test [3] is Delta-type opioid receptor (Rattus norvegicus, UniProt P33533). Nature of the test: Compound was tested for its ability to displace [3H]DADLE from delta receptor in rat brain. The format is tissue-based.

Where only a bound is given, the exact number is not on record here.

Sequence of Delta-type opioid receptor (P33533 whole entry): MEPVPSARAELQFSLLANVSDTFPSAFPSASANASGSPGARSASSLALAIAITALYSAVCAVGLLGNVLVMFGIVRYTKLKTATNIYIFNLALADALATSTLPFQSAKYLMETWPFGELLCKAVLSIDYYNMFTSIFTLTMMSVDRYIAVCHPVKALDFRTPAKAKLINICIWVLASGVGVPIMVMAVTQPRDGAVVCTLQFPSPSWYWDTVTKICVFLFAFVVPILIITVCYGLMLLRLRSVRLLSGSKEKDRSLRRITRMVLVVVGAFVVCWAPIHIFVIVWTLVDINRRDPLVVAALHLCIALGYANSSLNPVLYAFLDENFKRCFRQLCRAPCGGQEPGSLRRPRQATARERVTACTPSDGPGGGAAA
Sequence of Mu-type opioid receptor (P33535 whole entry): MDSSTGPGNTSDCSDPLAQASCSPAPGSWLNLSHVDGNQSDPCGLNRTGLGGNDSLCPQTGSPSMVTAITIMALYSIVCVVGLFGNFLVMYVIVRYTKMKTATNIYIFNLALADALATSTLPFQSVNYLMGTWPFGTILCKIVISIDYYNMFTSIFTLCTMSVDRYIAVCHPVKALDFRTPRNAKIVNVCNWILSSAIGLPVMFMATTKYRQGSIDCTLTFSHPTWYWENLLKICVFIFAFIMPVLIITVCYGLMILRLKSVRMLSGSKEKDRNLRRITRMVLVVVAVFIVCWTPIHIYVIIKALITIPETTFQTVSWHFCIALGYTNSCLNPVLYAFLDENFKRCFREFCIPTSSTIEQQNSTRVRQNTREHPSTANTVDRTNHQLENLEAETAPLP
Sequence of Kappa-type opioid receptor (P41144 whole entry): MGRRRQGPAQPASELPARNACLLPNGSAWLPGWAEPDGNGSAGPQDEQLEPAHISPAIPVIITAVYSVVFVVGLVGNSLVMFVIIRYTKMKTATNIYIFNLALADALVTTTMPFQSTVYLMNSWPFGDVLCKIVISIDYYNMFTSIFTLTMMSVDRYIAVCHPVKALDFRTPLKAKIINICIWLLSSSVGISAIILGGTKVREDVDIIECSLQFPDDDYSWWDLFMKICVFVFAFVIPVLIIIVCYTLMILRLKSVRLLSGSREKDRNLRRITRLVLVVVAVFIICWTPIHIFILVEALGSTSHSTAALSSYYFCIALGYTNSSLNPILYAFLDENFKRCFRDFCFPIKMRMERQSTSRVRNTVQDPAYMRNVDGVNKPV

One may read the Ki as the dissociation constant of the complex between target and ligand, obtained from inhibition or displacement. Low readings indicate a stronger hold on the target, high ones a looser hold on the target. Turning to `C=Cc1ccc2c3c1O[C@H]1c4[nH]c5ccccc5c4C[C@@]4(O)[C@@H](C2)N(CC2CC2)CC[C@]314`, the inhibitory constant (Ki) is 17.6 µM in test [1], more than 5.68 µM in test [2] and 0.061 µM in test [3].
For the compound `Oc1cccc(-c2ccc3c4c2O[C@H]2c5[nH]c6ccccc6c5C[C@@]5(O)[C@@H](C3)N(CC3CC3)CC[C@]425)c1`, the Ki is more than 6.8 µM in test [1], more than 5.68 µM in test [2] and 1.61 µM in test [3].
`COc1cccc(-c2ccc3c4c2O[C@H]2c5[nH]c6ccccc6c5C[C@@]5(O)[C@@H](C3)N(CC3CC3)CC[C@]425)c1`: the results for the Ki in test [1], in test [2] and in test [3] were more than 6.8 µM, more than 5.68 µM and more than 6.67 µM, respectively.
Turning to `Oc1ccc2c3c1O[C@H]1c4[nH]c5ccccc5c4C[C@@]4(O)[C@@H](C2)N(CC2CC2)CC[C@]314` [NALTRINDOLE], the Ki in test [1] stood at 0.0304 µM; in test [3], 0.000217 µM.
Turning to `O[C@@]12Cc3c([nH]c4ccccc34)[C@@H]3Oc4c(-c5ccco5)ccc5c4[C@@]31CCN(CC1CC1)[C@@H]2C5`, the inhibitory constant (Ki) is more than 6.8 µM in test [1], more than 5.68 µM in test [2] and 0.959 µM in test [3].
Consider `O[C@@]12Cc3c([nH]c4ccccc34)[C@H]3Oc4cccc5c4[C@@]31CCN(CC1CC1)[C@@H]2C5`, for which the inhibition constant Ki is 10.9 µM in test [1], more than 5.68 µM in test [2] and 0.035 µM in test [3].
For the compound `Cc1ccc2c3c1O[C@H]1c4[nH]c5ccccc5c4C[C@@]4(O)[C@@H](C2)N(CC2CC2)CC[C@]314`, the values for the Ki in test [1], in test [2] and in test [3] were more than 6.8 µM, more than 5.68 µM and 0.071 µM, respectively.
As to `O[C@@]12Cc3c([nH]c4ccccc34)[C@@H]3Oc4c(-c5ccccc5)ccc5c4[C@@]31CCN(CC1CC1)[C@@H]2C5`, the figures for the Ki in test [1], in test [2] and in test [3] were more than 6.8 µM, more than 5.68 µM and 10.6 µM, respectively.
